This is an account of results in US20230157996A1, “SMALL-MOLECULE INHIBITOR TARGETING EB VIRUS NUCLEAR ANTIGEN PROTEIN, PREPARATION METHOD AND USE THEREOF” (priority 2020, published 2023).

The test has as its system C666-1 cells. Briefly: C666-1 cell viability single concentration (50 μM) inhibition rate (Resazurin). Format: cell-based. Conditions: Homo sapiens, C6661, 72 h, 50 μM compound, 72 hours, C666-1 cells; read-out: C666-1 cell viability single concentration (50 μM) inhibition rate, Ratio* (Inh %). The method, boiled down: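 EBV-positive C666-1 cells (5×10^3/well), pre-cultured 24 h, were exposed to compound at 50 μmol/L final for 72 h at 37° C, 5% CO2, in duplicate. Viability by resazurin (3 h, ex 560/em 590 nm); inhibition rate computed relative to DMSO control and medium-only blank.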
For orientation: Resazurin is reduced to fluorescent resorufin, in cell work by metabolically active cells.
In the case of `O=C(NC1CCCCC1)OC1CN(c2cccc(C(=O)O)c2-n2cccc2)C1` [Example 150, 3-(3-((cyclohexylcarbamoyl)oxy)azetidin-1-yl)-2-(1H-pyrrol-1-yl)benzoic acid], the inhibition at 50 µM was below 10%.
As for `COC(=O)c1cccc(N2CC(OC(=O)Nc3ccc(C4CNCCO4)c(F)c3)C2)c1-n1cccc1` (stereo not shown) [Example 151, Methyl 3-(3-(((3-fluoro-4-(morpholin-2-yl)phenyl)carbamoyl)oxy)azetidin-1-yl)-2-(1H-pyrrol-1-yl)benzoate], the figure is 10 to 30%; as for `COC(=O)c1cccc(N2CC(OC(=O)NC3CC3)C2)c1-n1cccc1` [Example 155, Methyl 3-(3-((cyclopropylcarbamoyl)oxy)azetidin-1-yl)-2-(1H-pyrrol-1-yl)benzoate], 10 to 30%; as for `COC(=O)c1cccc(N2CC(OC(=S)Nc3ccc(Br)cc3)C2)c1-n1cccc1` [Example 156, Methyl 3-(3-(((4-bromophenyl)thiocarbamoyl)oxy)azetidin-1-yl)-2-(1H-pyrrol-1-yl)benzoate], 30 to 50%.
With `O=C(O)c1cccc(N2CC(OC(=S)Nc3ccc(Br)cc3)C2)c1-n1cccc1` [Example 157, 3-(3-(((4-bromophenyl)thiocarbamoyl)oxy)azetidin-1-yl)-2-(1H-pyrrol-1-yl)benzoic acid] the figure was below 10%; with `COC(=O)c1cccc(N2CC(OC(=S)Nc3ccc(OC)cc3)C2)c1-n1cccc1` [Example 158, Methyl 3-(3-(((4-methoxyphenyl)thiocarbamoyl)oxy)azetidin-1-yl)-2-(1H-pyrrol-1-yl)benzoate], above 50%.
As for `COc1ccc(NC(=S)OC2CN(c3cccc(C(=O)O)c3-n3cccc3)C2)cc1` [Example 159, 3-(3-(((4-methoxyphenyl)thiocarbamoyl)oxy)azetidin-1-yl)-2-(1H-pyrrol-1-yl)benzoic acid], the figure is below 10%; as for `CCNC(=S)OC1CN(c2cccc(C(=O)OC)c2-n2cccc2)C1` [Example 160, Methyl 3-(3-((ethylthiocarbamoyl)oxy)azetidin-1-yl)-2-(1H-pyrrol-1-yl)benzoate], 30 to 50%; as for `CCNC(=S)OC1CN(c2cccc(C(=O)O)c2-n2cccc2)C1` [Example 161, 3-(3-((ethylthiocarbamoyl)oxy)azetidin-1-yl)-2-(1H-pyrrol-1-yl)benzoic acid], below 10%.
Take `COC(=O)c1cccc(N2CC(OC(=S)Nc3ccc(Cl)cc3Cl)C2)c1-n1cccc1` [Example 162, Methyl 3-(3-(((2,4-dichlorophenyl)thiocarbamoyl)oxy)azetidin-1-yl)-2-(1H-pyrrol-1-yl)benzoate]: the inhibition at 50 µM lay within 10 to 30%.
As for `O=C(O)c1cccc(N2CC(OC(=S)Nc3ccc(Cl)cc3Cl)C2)c1-n1cccc1` [Example 163, 3-(3-(((2,4-dichlorophenyl)thiocarbamoyl)oxy)azetidin-1-yl)-2-(1H-pyrrol-1-yl)benzoic acid], the figure is below 10%.
As for `COC(=O)c1cccc(N2CC(NC(=O)NC3CC3)C2)c1-n1cccc1` [Example 164, Methyl 3-(3-(3-cyclopropylureido)azetidin-1-yl)-2-(1H-pyrrol-1-yl)benzoate], the figure is below 10%; as for `COC(=O)c1cccc(N2CC(NC(=O)Nc3ccc(Oc4ccccc4)cc3)C2)c1-n1cccc1` [Example 165, Methyl 3-(3-(3-(4-phenoxyphenyl)ureido)azetidin-1-yl)-2-(H-pyrrol-1-yl)benzoate], 10 to 30%.
As for `COC(=O)c1cccc(N2CC(NC(=O)Nc3ccc(OC(F)(F)F)cc3)C2)c1-n1cccc1` [Example 166, Methyl 2-(1H-pyrrol-1-yl)-3-(3-(3-(4-(trifluoromethoxy)phenyl)ureido)azetidin-1-yl)benzoate], the figure is above 50%.
Turning to `O=C(Nc1ccc(Oc2ccccc2)cc1)NC1CN(c2cccc(C(=O)O)c2-n2cccc2)C1` [Example 167, 3-(3-(3-(4-phenoxyphenyl)ureido)azetidin-1-yl)-2-(1H-pyrrol-1-yl)benzoic acid], the inhibition at 50 µM was below 10%.
`O=C(Nc1ccc(OC(F)(F)F)cc1)NC1CN(c2cccc(C(=O)O)c2-n2cccc2)C1` [Example 168, 2-(1H-pyrrol-1-yl)-3-(3-(3-(4-(trifluoromethoxy)phenyl)ureido)azetidin-1-yl)benzoic acid]: the inhibition at 50 µM is below 10%.
Regarding `O=C(NC1CC1)NC1CN(c2cccc(C(=O)O)c2-n2cccc2)C1` [Example 169, 3-(3-(3-cyclopropylureido)azetidin-1-yl)-2-(1H-pyrrol-1-yl)benzoic acid], the inhibition at 50 µM was below 10%.
As for `COC(=O)c1cccc(N2CC(NC(=O)Nc3cc(OC)cc(OC)c3)C2)c1-n1cccc1` [Example 170, Methyl 3-(3-(3-(3,5-dimethoxyphenyl)ureido)azetidin-1-yl)-2-(1H-pyrrol-1-yl)benzoate], the figure is 10 to 30%; as for `COc1cc(NC(=O)NC2CN(c3cccc(C(=O)O)c3-n3cccc3)C2)cc(OC)c1` [Example 171, 3-(3-(3-(3,5-dimethoxyphenyl)ureido)azetidin-1-yl)-2-(1H-pyrrol-1-yl)benzoic acid], below 10%; as for `CCNC(=S)NC1CN(c2cccc(C(=O)OC)c2-n2cccc2)C1` [Example 172, Methyl 3-(3-(3-ethylthioureido)azetidin-1-yl)-2-(1H-pyrrol-1-yl)benzoate], 10 to 30%.
As for `CCNC(=S)NC1CN(c2cccc(C(=O)O)c2-n2cccc2)C1` [Example 173, 3-(3-(3-ethylthioureido)azetidin-1-yl)-2-(1H-pyrrol-1-yl)benzoic acid], the figure is below 10%; as for `COC(=O)c1cccc(N2CC(NC(=S)Nc3ccc(Cl)cc3)C2)c1-n1cccc1` [Example 174, Methyl 3-(3-(3-(4-chlorophenyl)thioureido)azetidin-1-yl)-2-(1H-pyrrol-1-yl)benzoate], above 50%.
`O=C(O)c1cccc(N2CC(NC(=S)Nc3ccc(Cl)cc3)C2)c1-n1cccc1` [Example 175, 3-(3-(3-(4-chlorophenyl)thioureido)azetidin-1-yl)-2-(1H-pyrrol-1-yl)benzoic acid]: the inhibition at 50 µM was below 10%.
With `COC(=O)c1cccc(N2CC(NS(=O)(=O)c3ccc(C)cc3)C2)c1-n1cccc1` [Example 176, Methyl 3-(3-((4-methylphenyl)sulfonamido)azetidin-1-yl)-2-(1H-pyrrol-1-yl)benzoate] the figure was 10 to 30%; with `Cc1ccc(S(=O)(=O)NC2CN(c3cccc(C(=O)O)c3-n3cccc3)C2)cc1` [Example 177, 3-(3-((4-methylphenyl)sulfonamido)azetidin-1-yl)-2-(1H-pyrrol-1-yl)benzoic acid], below 10%.
Take `COC(=O)c1cccc(N2CC(NC(=O)c3ccccc3)C2)c1-n1cccc1` [Example 178, Methyl 3-(3-benzamidoazetidin-1-yl)-2-(1H-pyrrol-1-yl)benzoate]: the inhibition at 50 µM was in the range of 10 to 30%.
Consider `O=C(NC1CN(c2cccc(C(=O)O)c2-n2cccc2)C1)c1ccccc1` [Example 179, 3-(3-benzamidoazetidin-1-yl)-2-(1H-pyrrol-1-yl)benzoic acid], for which the inhibition at 50 µM was below 10%.
With `COC(=O)c1cccc(N2CC(NC(=O)c3ccccc3[N+](=O)[O-])C2)c1-n1cccc1` [Example 180, Methyl 3-(3-(2-nitrobenzamido)azetidin-1-yl)-2-(1H-pyrrol-1-yl)benzoate], the inhibition at 50 µM fell in the range of 30 to 50%.
With `O=C(NC1CN(c2cccc(C(=O)O)c2-n2cccc2)C1)c1ccccc1[N+](=O)[O-]` [Example 181, 3-(3-(2-nitrobenzamido)azetidin-1-yl)-2-(1H-pyrrol-1-yl)benzoic acid] the figure was below 10%; with `COC(=O)c1cccc(N2CC(NS(=O)(=O)C3CC3)C2)c1-n1cccc1` [Example 182, Methyl 3-(3-(cyclopropylsulfonamido)azetidin-1-yl)-2-(1H-pyrrol-1-yl)benzoate], 10 to 30%; with `O=C(O)c1cccc(N2CC(NS(=O)(=O)C3CC3)C2)c1-n1cccc1` [Example 183, 3-(3-(cyclopropylsulfonamido)azetidin-1-yl)-2-(1H-pyrrol-1-yl)benzoic acid], below 10%.
With `COC(=O)c1cccc(N2CC(N(Cc3ccccc3)S(=O)(=O)c3ccc(C)cc3)C2)c1-n1cccc1` [Example 184, Methyl 3-(3-((N-benzyl-4-methylphenyl)sulfonamido)azetidin-1-yl)-2-(1H-pyrrol-1-yl)benzoate] the figure was below 10%.
As to `Cc1ccc(S(=O)(=O)N(Cc2ccccc2)C2CN(c3cccc(C(=O)O)c3-n3cccc3)C2)cc1` [Example 185, 3-(3-((N-benzyl-4-methylphenyl)sulfonamido)azetidin-1-yl)-2-(1H-pyrrol-1-yl) benzoic acid], the inhibition at 50 µM was below 10%.
As for `O=C(O)c1cccc(-c2cn(-c3ccc(CO)cc3)nn2)c1-c1ccc2cc[nH]c2c1` [Example 186, 3-(1-(4-(hydroxymethyl)phenyl)-1H-1,2,3-triazol-4-yl)-2-(1H-indol-6-yl)benzoic acid], the figure is below 10%; as for `COC(=O)c1cccc(N2CC(Oc3ccc(O)cc3)C2)c1-n1cccc1` [Example 187, Methyl 3-(3-(4-hydroxylphenoxy)azetidin-1-yl)-2-(1H-pyrrol-1-yl)benzoate], below 10%.
With `O=C(O)c1cccc(N2CC(Oc3ccc(O)cc3)C2)c1-n1cccc1` [Example 188, 3-(3-(4-hydroxylphenoxy)azetidin-1-yl)-2-(1H-pyrrol-1-yl)benzoic acid] the figure was below 10%; with `COC(=O)c1cccc(N2CC(Sc3ccc(C)cc3)C2)c1-n1cccc1` [Example 190, Methyl 2-(1H-pyrrol-1-yl)-3-(3-(p-tolylthio)azetidin-1-yl)benzoate], below 10%.
